In patent US20080167268A1, “Particulate beta-glucan compositions for regulating dendritic cells” (priority 2006, published 2008):

System: Lewis Lung Carcinoma cells (LLC) transfected with OVA and MUC1
Test: Staurosporine-induced apoptosis of transfected LLCs (PI / annexin V-FITC flow cytometry)
Type: cell-based
Details: transfected LLCs treated with Staurosporine vs untreated; FIG. 2
Source text: Transfected LLCs were either left untreated (plot 22) or treated (plot 24) with Staurosporine, which induces apoptosis. Cells from both groups were stained with propidium iodide (PI) and annexin V-FITC and analyzed by flow cytometry.

CN[C@@H]1C[C@H]2O[C@@](C)([C@@H]1OC)n1c3ccccc3c3c4c(c5c6ccccc6n2c5c31)C(=O)NC4 [Staurosporine]
induction of apoptosis (annexin V-FITC positive cells): able to induce apoptosis
